Results taken from paper PMC13489962, “Small-molecule modulation of β-arrestins” (Nature, 2026).
Where “and” joins values, the source holds several entries; their conditions need not be identical. Identical values can stand only once. Entries after “also recorded” stand apart in the source; their conditions may differ.

Key:
[1] = biological target: T1, βARR1 (Rattus norvegicus, UniProt P29066); test: ITC binding to βARR1; conditions: for Kd: one-site model
T1 construct: βARR1 or βARR2 construct, with their C terminus truncated (at amino acid 393 or 394, respectively); GST (pGEX4T1) (N, cleaved yes); made in house; host or cells: E. coli BL21 (DE3) pLysS
T1 sequence (P29066 1-393): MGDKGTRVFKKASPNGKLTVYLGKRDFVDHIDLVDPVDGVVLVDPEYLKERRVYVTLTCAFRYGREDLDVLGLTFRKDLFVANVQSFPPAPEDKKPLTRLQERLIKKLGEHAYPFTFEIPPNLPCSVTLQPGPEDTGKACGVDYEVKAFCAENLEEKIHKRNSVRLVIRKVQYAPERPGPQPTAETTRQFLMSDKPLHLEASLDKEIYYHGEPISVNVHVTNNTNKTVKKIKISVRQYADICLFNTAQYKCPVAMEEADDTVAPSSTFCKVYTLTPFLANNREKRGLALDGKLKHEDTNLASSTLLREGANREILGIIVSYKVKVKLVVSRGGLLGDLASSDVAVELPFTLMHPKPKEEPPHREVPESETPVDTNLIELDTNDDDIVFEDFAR
Protocol: (§1) The expression and purification of β-arrestins have been described previously[44],[62]–[64]. In brief, E. coli BL21 (DE3) pLysS cells (New England Biolabs: C2527I) carrying pGEX4T1-Rattus norvegicus βARR1 or βARR2 construct, with their C terminus truncated (at amino acid 393 or 394, respectively), were cultured in Terrific Broth (Teknova) medium at 37 °C. After OD600 reached 0.6–0.8, the cells were induced with 0.1 mM isopropyl-β-D-thiogalactopyranoside (IPTG) at 18 °C overnight. Bacteria were collected by centrifugation (4,000 rpm), and cell pellets were resuspended in lysis buffer (20 mM HEPES, pH 8, 150 mM NaCl, 10% glycerol, 1 mM EDTA, 0.2 mM dithiothreitol (DTT), 1 mM phenylmethylsulfonyl fluoride, and 1 mM benzamidine) at 4 °C for 1 h. Cell suspensions were sonicated, centrifuged (14,000 rpm, 30 min, 4 °C), and the supernatant was loaded onto pre-equilibrated glutathione–agarose resin (GoldBio). After 3 h of binding at 4 °C, the beads were washed, and thrombin was added for overnight cleavage. The proteins were further purified by anion exchange chromatography followed by size-exclusion chromatography using a Superdex 200 Increase 10/300 GL column on an ÄKTA FPLC system (GE Healthcare). Eluted fractions were analysed by SDS–PAGE, pooled, concentrated using 30 kDa MWCO Amicon Ultra-15 Centrifugal Filter devices, flash-frozen in liquid nitrogen, and stored in aliquots at −80 °C. The same rat βARR1 constructs with mutations (L129A, L129S, L129G, P131A, P133A, E134A, D135A, K138A, C140A, Y249A, C251A, E283A, K284A and R285A) were generated and purified in a similar manner. Recombinant Gα subunits (Gαs, Gαq and Gαi) were purified as GST fusion proteins using glutathione–agarose affinity chromatography as previously described. The heterotrimeric Gs protein complex, composed of Gαs, Gβ1 and Gγ2 subunits, was expressed in Sf9 cells using the baculovirus expression system and purified as previously described. M2R expression, purification and reconstitution into high-density lipoprotein (HDL) particles were performed as previously described. ERK2, SRC, p38α and JNK3 kinases were expressed and purified using previously established protocols[6],[16]. Protein concentrations for each protein were determined by ultraviolet absorption at 280 nm and extinction coefficients estimated using the ExPASy ProtParam tool[67].
(§2) ITC measurements were performed on a MicroCal iTC200 system at 25 °C. Prior to ITC experiments, all proteins (βARR1, βARR2 or βARR1 mutants) were extensively dialysed against 20 mM HEPES (pH 7.4), 100 mM NaCl, and 3 μM TCEP. Protein concentrations were determined by spectrophotometry at 280 nm, using extinction coefficients calculated from each protein sequence via the ProtParam program. The dialysis buffer was used to dilute DMSO stock solutions of β-arrestin small-molecule modulators to their final concentrations for measurements. For each ITC experiment, β-arrestin modulators (Cmpd-5 at 350 μM, Cmpd-46 at 450 μM, and Cmpd-64 at 450 μM) were loaded into the syringe and titrated into the calorimetric cell containing βARR1, βARR1 mutants or βARR2 (at about 30–40 μM, depending on the protein and experiment). Additional ITC experiments were also performed using purified GST-fused Gα subunits (Gαs, Gαq and Gαi; about 30 μM) and Gαiβγ heterotrimer (about 30 μM). Gα subunits were prepared in the same buffer (20 mM HEPES, pH 7.4, 100 mM NaCl, 3 μM TCEP), whereas the Gαiβγ heterotrimer was maintained in buffer supplemented with 0.05% DDM and 10 μM GDP, with matched DMSO carrier conditions. Modulators (300 μM) or corresponding DMSO controls were loaded and titrated as described above. The reference cell was filled with distilled water. In all experiments, the titration sequence typically consisted of an initial 0.4 μl injection, followed by 19 injections of 2 μl each, with a 180-s interval between injections to allow thermal power to return to baseline. […]

[2] = biological target: T2, βARR2 (Rattus norvegicus, UniProt P29067); test: ITC binding to βARR2; conditions: for stoichiometry N, βARR2 / Kd: ITC; for Kd: 25 °C, one-site model; for β-arrestin isoform preference: from ITC
T2 construct: βARR1 or βARR2 construct, with their C terminus truncated (at amino acid 393 or 394, respectively); GST (pGEX4T1) (N, cleaved yes); made in house; host or cells: E. coli BL21 (DE3) pLysS
T2 sequence (P29067 1-394): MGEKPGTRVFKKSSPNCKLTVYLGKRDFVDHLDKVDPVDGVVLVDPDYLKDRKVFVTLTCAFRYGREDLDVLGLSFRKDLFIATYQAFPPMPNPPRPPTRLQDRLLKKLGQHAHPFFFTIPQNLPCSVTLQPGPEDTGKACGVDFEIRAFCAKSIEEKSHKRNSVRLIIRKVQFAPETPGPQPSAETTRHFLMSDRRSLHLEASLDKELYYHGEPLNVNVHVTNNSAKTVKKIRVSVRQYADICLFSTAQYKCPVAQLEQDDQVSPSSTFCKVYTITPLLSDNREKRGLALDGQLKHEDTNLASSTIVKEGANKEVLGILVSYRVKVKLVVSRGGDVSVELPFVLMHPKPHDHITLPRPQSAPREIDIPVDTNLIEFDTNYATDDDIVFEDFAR
Protocol: as §1, §2

[3] = tested on: AT1R desensitization (Ca2+); test: Ca2+ mobilization in HEK293 cells stably expressing AT1R; assay type: cell-based, human; conditions: 10 μM, 30 min, ANGII 30 pM
Protocol: Intracellular (Ca^2+) release was measured using the FLIPR Calcium 6 assay kit with a FlexStation 3 microplate reader, following the manufacturer’s instructions (Molecular Devices) and as described previously. In brief, HEK293 cells stably expressing human angiotensin II type 1 receptor (AT1R), parental HEK293 cells transiently expressing AT1R, or HEK293 CRISPR–Cas9 βARR1/2-knockout cells transiently expressing AT1R were seeded in poly-D-lysine-coated, black 96-well assay plates at a density of 40,000 cells per well and incubated for 24 h. On the day of the experiment, cell plates were loaded with FLIPR Calcium 6 reagents and treated with β-arrestin small-molecule modulators (10 μM) or vehicle (DMSO) for 30 min. After establishing basal fluorescence (F0), the cells were treated with the agonist ANGII (30 pM for stably expressing AT1R or 120 pM for transiently expressing AT1R) while fluorescence intensity (F) was monitored in real time. These sub-maximal ANGII concentrations were empirically optimized to elicit moderate, temporally resolved Ca^2+ transients, allowing sufficient time for β-arrestin-mediated desensitization to develop prior to the peak response. The complete Ca^2+ transient profile was quantified by calculating the AUC over time. AUC values were normalized to the response to ANGII alone (set as 100%) to compare the effects of modulators relative to the agonist-alone control.

Compound: C=C1C(=O)[C@]23[C@H](O)[C@H]1CC[C@H]2[C@@]12CO[C@]3(O)[C@@H](O)[C@@H]1C(C)(C)CC[C@@H]2O [Cmpd-5, (1S,4aR,5S,6S,6aR,9S,11aS,11bS,14R)-1,5,6,14-tetrahydroxy−4,4-dimethyl-8-methylenedecahydro-1H-6,11b-(epoxymethano)-6a,9-methanocyclohepta[a]naphthalen-7(8H)-one]
- stoichiometry N, βARR1 [1]: 1
- ΔH, βARR1 wild type ([1]; 25 °C): -13.4 kcal/mol
- Kd ([1]; 25 °C): ~400 nM and 362 nM
- stoichiometry N, βARR2 [2]: 0.84
- Kd [2]: 563 ± 45 nM
- β-arrestin isoform preference [2]: bound both isoforms comparably; also recorded: bound each isoform similarly
- ANGII-induced Ca2+ response (AUC) relative to DMSO (set to 100%) [3]: 279%

Compound: C=C1C(=O)OC2CC3(C)OC3CCC(C)=CC(OC(C)=O)C12 (stereo not drawn) [Cmpd-64, (Z)-4,10a-dimethyl-7-methylene-8-oxo-1a,2,3,6,6a,7,8,9a,10,10a decahydrooxireno[2’,3’:8,9]cyclodeca[1,2-b]furan-6-yl acetate]
- stoichiometry N, βARR1 [1]: 0.73
- Kd ([1]; 25 °C): 1420 ± 200 nM
- stoichiometry N, βARR2 [2]: 0.91
- Kd [2]: 207 ± 54 nM
- ANGII-induced Ca2+ response (AUC) relative to DMSO (set to 100%) [3]: 490%

Compound: C=C1C(=O)C2=CC1CCC(=O)C1(C)CCC(OCC)C(C)(C)C1CC2O (stereo not drawn) [Cmpd-46, (Z)-3-ethoxy-6-hydroxy-4,4,13a-trimethyl-9-methylene-1,2,3,4,4a,5,6,9,10,11,12,13a-dodecahydro-7,10-(metheno)benzo[11]annulene-8,13-dione]
- stoichiometry N, βARR1 [1]: 1.2
- Kd ([1]; 25 °C): 1340 ± 740 nM
- stoichiometry N, βARR2 [2]: 0.94
- Kd [2]: 753 ± 54 nM
- β-arrestin isoform preference [2]: slight βarr2 preference; also recorded: modest βARR2 preference
- ANGII-induced Ca2+ response (AUC) relative to DMSO (set to 100%) [3]: 356%
